Where a SMILES comes first, the peptide text is derived from it. [ ]: non-standard residue; d: D form. The star is where a group is joined. d(aIle) = CC[C@H](C)[C@@H](N)C(=O)O; dOrn = NCCC[C@@H](N)C(=O)O; dDab = NCC[C@@H](N)C(=O)O; Octanoyl = CCCCCCCC(=O)*; Orn = NCCC[C@H](N)C(=O)O; Dab = NCC[C@H](N)C(=O)O
How the values were obtained:
A. baumannii = format: cell-based, Acinetobacter baumannii; settings: 18 h
Protocol: (§1) IV. Antimicrobial testing
(§2) All minimum inhibitory concentrations (MICs) were determined according to Clinical and Standards Laboratory Institute (CLSI) guidelines. Briefly, peptides were dissolved in Muller-Hinton Broth (MHB) and serial dilutions made across a 96 well plate. Each well was inoculated with a suspension of the required bacterial strain to reach a final inoculum of 5 x 10^5 colony forming units per mL. The MIC was taken as the lowest concentration with no visible growth after 18 hours.
(§3) V. Additional information on multidrug resistant strains
(§4) Organism Resistant Susceptible
Acinetobacter baumannii Cefotaxime Imipenem
Isolated from sewage contaminated Tetracycline Colistin water (Tripoli, Lebanon). Ofloxacin Tobramycin
(§5) Acinetobacter baumannii ACM 11 Ceftazimide
(§6) Acinetobacter baumannii ACM 29 Ceftazimide
(§7) Isolated from peritoneum of 3-year- Imipenem

A. baumannii ACM 11 = format: cell-based, Acinetobacter baumannii; settings: ACM 11, 18 h
Protocol: as §1, §2, §3, §4, §5

A. baumannii ACM 29 = format: cell-based, Acinetobacter baumannii; settings: ACM 29, 18 h
Protocol: as §1, §2
V. Additional information on multidrug resistant strains […]
Organism Resistant Susceptible […]
as §6, §7

E. cloacae = format: cell-based, Enterobacter cloacae; settings: 18 h
Protocol: as §1, §2

K. pneumoniae IMP 170 = format: cell-based, Klebsiella pneumoniae; settings: IMP 170, 18 h
Protocol: as §1, §2

K. pneumoniae IMP 177 = format: cell-based, Klebsiella pneumoniae; settings: IMP 177, 18 h
Protocol: as §1, §2

K. pneumoniae IMP 204 = format: cell-based, Klebsiella pneumoniae; settings: IMP 204, 18 h
Protocol: as §1, §2

K. pneumoniae IMP 216 = format: cell-based, Klebsiella pneumoniae; settings: IMP 216, 18 h
Protocol: as §1, §2

K. pneumoniae IMP 485 = format: cell-based, Klebsiella pneumoniae; settings: IMP 485, 18 h
Protocol: as §1, §2

K. pneumoniae = format: cell-based, Klebsiella pneumoniae; settings: 18 h
Protocol: as §1, §2

P. pseudoalcaligenes = format: cell-based, Pseudomonas pseudoalcaligenes; settings: for Peptide MIC: 18 h; for antimicrobial activity relative to Oct-TriA1: against P. pseudoalcaligenes
Protocol: as §1, §2

Equine erythrocytes = format: cell-based, horse; settings: red cells of equine, 100 μg mL^–1
Protocol: Having assessed the antimicrobial activity of peptides 1–8 we next proceeded to assess their haemolytic activities (Table 2). Haemolytic activity was tested at 100 μg mL^–1, as the concentration required for haemolysis should be higher than antimicrobial MICs. Equine erythrocytes were exposed to peptides 1–8 and incubated for 30 min at 37 °C (Table 2). […] The low haemolytic activity observed for Oct-TriA2 (2,8-D-Lys, 7-Lys) (8) is consistent with its poor antimicrobial activity. […]
VI. Haemolytic activity assays
A 96-well plate was first prepared to contain phosphate-buffered saline (PBS) solutions (100 μL) of tridecaptin analogues 1 – 8 (200 μg/mL) (experiments run in triplicate). 0.1 % Triton X-100 (100 μL) was used as a positive control, while PBS (100 μL) was used as a blank. After the plate had been prepared, defibrinated horse blood (0.5 mL, VWR International) was diluted with phosphate-buffered saline (9.5 mL) and gently shaken. The resulting mixture was centrifuged (5600 rpm, 5 min) using a Thermo Scientific Heraeus Labofuge 200 centrifuge and the supernatant carefully removed. This process was repeated three more times to remove any free hemoglobin. The resulting erythrocyte pellet was gently resuspended in 9.5 mL of PBS. Aliquots of the resulting mixture (100 μL) were added to the appropriate wells on the 96-well plate using a multichannel pipette and the plate incubated at 37 °C for 30 min. The samples were gently mixed by pipetting, and 20 μL of each was added to 200 μL of PBS. Once again, the samples were gently mixed. The diluted samples were then centrifuged (7000 rpm, 5 min) using a SciSpin MINI Microfuge. Supernatant (150 μL) from each sample was added to a new 96-well plate. The absorbance of each sample was individually measured at 415 nm using a Denovix DS-11 FX+ Spectrophotometer. Percent hemolysis of the peptides was calculated relative to Triton X- 100, while the PBS negative control was used as a blank.

[1] = tested on: panel of Gram-negative bacteria; test: MIC, summary over the panel of strains; format: cell-based
From the text: Previous studies have shown that the tridecaptins have strong activity against clinically relevant Gram-negative strains.[8],[14] This includes A. baumannii and Enterobacteriaceae such as Klebsiella pneumoniae and Enterobacter spp., however P. aeruginosa is less susceptible. The World Health Organization (WHO) currently lists carbapenemase-producing strains of these Gram-negative bacteria as critical priority pathogens. We therefore decided to synthesize a library of novel tridecaptin analogues containing conservative substitutions at positions 2, 7, 8 and/or 12, and evaluate their activity against a panel of these strains (Table 1). This panel of Gram-negative bacteria contains environmental samples isolated from sewage contaminated water in Lebanon, as well as several strains isolated from patients at clinical settings. […]
MilliQ water and solvent B = 0.1 % TFA in ACN. […] High resolution mass spectrometry (HRMS) spectra of all peptides were recorded by Analytical Services and Environmental Projects (ASEP) at Queen’s University Belfast on a Waters LCT Premier ToF mass spectrometer using the electrospray ionisation (ESI) technique. […]
All minimum inhibitory concentrations (MICs) were determined according to Clinical and Standards Laboratory Institute (CLSI) guidelines. […]

Row | Peptide MIC (A. baumannii) | Peptide MIC (A. baumannii ACM 11) | Peptide MIC (A. baumannii ACM 29) | Peptide MIC (E. cloacae) | Peptide MIC (K. pneumoniae IMP 170) | Peptide MIC (K. pneumoniae IMP 177) | Peptide MIC (K. pneumoniae IMP 204) | Peptide MIC (K. pneumoniae IMP 216) | Peptide MIC (K. pneumoniae IMP 485) | Peptide MIC (K. pneumoniae) | Peptide MIC (P. pseudoalcaligenes) | SMILES | antimicrobial activity relative to Oct-TriA1 (P. pseudoalcaligenes) | % haemolysis (Equine erythrocytes) | antimicrobial activity at the highest concentrations tested ([1]; highest concentration tested 100 μg mL^–1, all strains of the panel) | antimicrobial activity relative to Oct-TriA1 (1) ([1]; against most strains tested)
1 | 50 μg mL^–1 | 25 μg mL^–1 | 50 μg mL^–1 | 25 μg mL^–1 | 25 μg mL^–1 | 25 μg mL^–1 | 25 μg mL^–1 | 25 μg mL^–1 | 25 μg mL^–1 | 50 μg mL^–1 | 25 μg mL^–1 | CCCCCCCC(=O)N[C@@H](C(=O)N[C@H](CCCCN)C(=O)NCC(=O)N[C@H](CO)C(=O)N[C@H](Cc1c[nH]c2ccccc12)C(=O)N[C@@H](CO)C(=O)N[C@@H](CCCCN)C(=O)N[C@H](CCN)C(=O)N[C@@H](Cc1ccccc1)C(=O)N[C@@H](CCC(=O)O)C(=O)N[C@H](C(=O)N[C@@H](C(=O)N[C@@H](C)C(=O)O)[C@@H](C)CC)C(C)C)C(C)C [Peptide 4, Oct-TriA1 (2-D-Lys, 7-Lys)] (Octanoyl-[dV][dK]G[dS][dW]SK[dDab]FEV[d(aIle)]A-OH) | enhanced antimicrobial activity | 71.4% | – | –
2 | 100 μg mL^–1 | 50 μg mL^–1 | 50 μg mL^–1 | 25 μg mL^–1 | 25 μg mL^–1 | 25 μg mL^–1 | 25 μg mL^–1 | 25 μg mL^–1 | 25 μg mL^–1 | 100 μg mL^–1 | 12.5 μg mL^–1 | CCCCCCCC(=O)N[C@@H](C(=O)N[C@H](CCCN)C(=O)NCC(=O)N[C@H](CO)C(=O)N[C@H](Cc1c[nH]c2ccccc12)C(=O)N[C@@H](CO)C(=O)N[C@@H](CCCN)C(=O)N[C@H](CCN)C(=O)N[C@@H](Cc1ccccc1)C(=O)N[C@@H](CCC(=O)O)C(=O)N[C@H](C(=O)N[C@@H](C(=O)N[C@@H](C)C(=O)O)[C@@H](C)CC)C(C)C)C(C)C [Peptide 3, Oct-TriA1 (2-D-Orn, 7-Orn)] (Octanoyl-[dV][dOrn]G[dS][dW]S[Orn][dDab]FEV[d(aIle)]A-OH) | enhanced antimicrobial activity | 66.7% | – | –
3 | 12.5 μg mL^–1 | 50 μg mL^–1 | 50 μg mL^–1 | 6.25 μg mL^–1 | 25 μg mL^–1 | 25 μg mL^–1 | 25 μg mL^–1 | 6.25 μg mL^–1 | 25 μg mL^–1 | 12.5 μg mL^–1 | 50 μg mL^–1 | CCCCCCCC(=O)N[C@@H](C(=O)N[C@H](CCCN)C(=O)NCC(=O)N[C@H](CO)C(=O)N[C@H](Cc1c[nH]c2ccccc12)C(=O)N[C@@H](CO)C(=O)N[C@@H](CCCN)C(=O)N[C@H](CCCN)C(=O)N[C@@H](Cc1ccccc1)C(=O)N[C@@H](CCC(=O)O)C(=O)N[C@H](C(=O)N[C@@H](C(=O)N[C@@H](C)C(=O)O)[C@@H](C)CC)C(C)C)C(C)C [Peptide 5, Oct-TriA1 (2,8-D-Orn, 7-Orn)] (Octanoyl-[dV][dOrn]G[dS][dW]S[Orn][dOrn]FEV[d(aIle)]A-OH) | – | 77.5% | – | –

Second part, the compound before the results:

Row | SMILES | Peptide MIC (A. baumannii) | Peptide MIC (A. baumannii ACM 11) | Peptide MIC (A. baumannii ACM 29) | Peptide MIC (E. cloacae) | Peptide MIC (K. pneumoniae IMP 170) | Peptide MIC (K. pneumoniae IMP 177) | Peptide MIC (K. pneumoniae IMP 204) | Peptide MIC (K. pneumoniae IMP 216) | Peptide MIC (K. pneumoniae IMP 485) | Peptide MIC (K. pneumoniae) | Peptide MIC (P. pseudoalcaligenes) | antimicrobial activity relative to Oct-TriA1 (P. pseudoalcaligenes) | % haemolysis (Equine erythrocytes) | antimicrobial activity at the highest concentrations tested ([1]; highest concentration tested 100 μg mL^–1, all strains of the panel) | antimicrobial activity relative to Oct-TriA1 (1) ([1]; against most strains tested)
4 | CCCCCCCC(=O)N[C@@H](C(=O)N[C@H](CCCCN)C(=O)NCC(=O)N[C@H](CO)C(=O)N[C@H](Cc1c[nH]c2ccccc12)C(=O)N[C@@H](CO)C(=O)N[C@@H](CCCCN)C(=O)N[C@H](CCCCN)C(=O)N[C@@H](Cc1ccccc1)C(=O)N[C@@H](CCC(=O)O)C(=O)N[C@H](C(=O)N[C@@H](C(=O)N[C@@H](C)C(=O)O)C(C)C)C(C)C)C(C)C [Peptide 8, Oct-TriA2 (2,8-D-Lys, 7-Lys)] (HELM PEPTIDE1{[CCCCCCCC(=O)[*:2]].[dV].[dK].G.[dS].[dW].S.K.[dK].F.E.V.[dV].A}$$$$V2.0) | >100 μg mL^–1 | >100 μg mL^–1 | >100 μg mL^–1 | >100 μg mL^–1 | >100 μg mL^–1 | >100 μg mL^–1 | >100 μg mL^–1 | >100 μg mL^–1 | >100 μg mL^–1 | >100 μg mL^–1 | >100 μg mL^–1 | – | 2.8% | no antimicrobial activity | –
5 | CCCCCCCC(=O)N[C@@H](C(=O)N[C@H](CCN)C(=O)NCC(=O)N[C@H](CO)C(=O)N[C@H](Cc1c[nH]c2ccccc12)C(=O)N[C@@H](CO)C(=O)N[C@@H](CCN)C(=O)N[C@H](CCN)C(=O)N[C@@H](Cc1ccccc1)C(=O)N[C@@H](CCC(=O)O)C(=O)N[C@H](C(=O)N[C@@H](C(=O)N[C@@H](C)C(=O)O)C(C)C)C(C)C)C(C)C [Peptide 2, Oct-TriA2] (Octanoyl-[dV][dDab]G[dS][dW]S[Dab][dDab]FEV[dV]A-OH) | 25 μg mL^–1 | 100 μg mL^–1 | 50 μg mL^–1 | 6.25 μg mL^–1 | 12.5 μg mL^–1 | 25 μg mL^–1 | 12.5 μg mL^–1 | 12.5 μg mL^–1 | 12.5 μg mL^–1 | 12.5 μg mL^–1 | 50 μg mL^–1 | – | 52.1% | – | two- to four-fold less active
6 | CCCCCCCC(=O)N[C@@H](C(=O)N[C@H](CCCCN)C(=O)NCC(=O)N[C@H](CO)C(=O)N[C@H](Cc1c[nH]c2ccccc12)C(=O)N[C@@H](CO)C(=O)N[C@@H](CCCCN)C(=O)N[C@H](CCCCN)C(=O)N[C@@H](Cc1ccccc1)C(=O)N[C@@H](CCC(=O)O)C(=O)N[C@H](C(=O)N[C@@H](C(=O)N[C@@H](C)C(=O)O)[C@@H](C)CC)C(C)C)C(C)C [Peptide 6, Oct-TriA1 (2,8-D-Lys, 7-Lys)] (HELM PEPTIDE1{[CCCCCCCC(=O)[*:2]].[dV].[dK].G.[dS].[dW].S.K.[dK].F.E.V.[CC[C@H](C)[C@@H](N[*:1])C(=O)[*:2]].A}$$$$V2.0) | 6.25 μg mL^–1 | 25 μg mL^–1 | 25 μg mL^–1 | 25 μg mL^–1 | 50 μg mL^–1 | 25 μg mL^–1 | 50 μg mL^–1 | 25 μg mL^–1 | 25 μg mL^–1 | 50 μg mL^–1 | 100 μg mL^–1 | – | 86.4% | – | –

Reference: publication PMC6457190, “Tridecaptin-inspired antimicrobial peptides with activity against multidrug-resistant Gram-negative bacteria” (MedChemComm, 2019)
